Measurements as given in the NIST ThermoML archive (doi:10.1021/je700546r).

Test: molar heat capacity at saturation pressure
Details: Crystal 3, Small (less than 1 g) adiabatic calorimetry

ON=C1CCCCC1 [cyclohexanone oxime]
Details | molar heat capacity [J/K/mol]
123.03 K | 75.63
123.73 K | 75.98
124.91 K | 76.46
125.75 K | 76.86
126.79 K | 77.29
127.76 K | 77.72
128.67 K | 78.11
129.79 K | 78.6
130.55 K | 78.91
131.81 K | 79.49
132.43 K | 79.75
133.83 K | 80.38
134.31 K | 80.58
135.86 K | 81.28
136.2 K | 81.42
137.88 K | 82.16
138.09 K | 82.25
139.9 K | 83.05
139.98 K | 83.08
141.87 K | 83.93
141.92 K | 83.95
143.76 K | 84.77
143.95 K | 84.85
145.65 K | 85.62
145.97 K | 85.73
147.54 K | 86.49
148 K | 86.67
149.44 K | 87.35
150.03 K | 87.59
151.34 K | 88.17
152.05 K | 88.52
153.24 K | 89.05
154.08 K | 89.42
155.13 K | 89.89
156.1 K | 90.34
157.03 K | 90.77
158.12 K | 91.27
158.93 K | 91.65
160.13 K | 92.24
160.83 K | 92.53
162.15 K | 93.18
162.73 K | 93.45
164.16 K | 94.14
164.63 K | 94.35
166.17 K | 95.08
166.54 K | 95.25
168.18 K | 96.07
168.44 K | 96.2
170.18 K | 97.05
170.35 K | 97.13
172.19 K | 98.05
172.26 K | 98.07
174.17 K | 99.06
174.19 K | 99.05
176.08 K | 100.02
176.19 K | 100.08
177.99 K | 101.03
178.2 K | 101.13
179.9 K | 102.04
180.2 K | 102.17
181.81 K | 103.07
182.19 K | 103.23
183.72 K | 104.11
184.18 K | 104.31
185.64 K | 105.14
186.16 K | 105.44
187.55 K | 106.25
188.14 K | 106.57
189.46 K | 107.37
190.12 K | 107.71
191.37 K | 108.48
192.1 K | 108.92
193.29 K | 109.62
194.08 K | 110.15
195.2 K | 110.84
196.05 K | 111.36
197.13 K | 112.05
198.02 K | 112.6
199.05 K | 113.28
199.97 K | 113.87
200.97 K | 114.62
202 K | 115.31
202.89 K | 116
203.92 K | 116.79
204.81 K | 117.51
205.74 K | 118.31
206.72 K | 119.13
207.56 K | 119.91
208.63 K | 120.93
209.36 K | 121.66
210.55 K | 122.71
211.17 K | 123.38
212.46 K | 124.68
212.97 K | 125.27
214.38 K | 126.63
214.76 K | 127.11
216.3 K | 128.63
216.54 K | 128.94
217 K | 129.41
217.73 K | 130.26
218.21 K | 130.69
218.32 K | 130.87
218.98 K | 131.5
219.5 K | 132.12
220.09 K | 132.7
220.14 K | 132.72
220.87 K | 133.52
221.26 K | 133.99
222.06 K | 134.69
222.75 K | 135.43
223.02 K | 135.78
